Reference: ChEMBL document CHEMBL1201862, “PubChem BioAssay data set” (2004)
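Cells were grown in 96-well plates and exposed to each compound for 48 hours at five concentrations; endpoints were interpolated linearly between bracketing concentrations, or set to the highest concentration if not reached. Abbreviation: GI50, concentration required for 50% inhibition of growth.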 Activity calls are given as the source filed them. Rule as the data show it: active = GI50 up to about 1.1 µM and inactive = higher.

Assays:
Assay in all cases: DTP human tumour cell line panel, 48 h
786-0 = test system: 786-0
CCRF-CEM = test system: CCRF-CEM
COLO 205 = test system: COLO 205
HCT-116 = test system: HCT-116
HL-60 = test system: HL-60
IGROV-1 = test system: IGROV-1
M14 = test system: M14
NCI-H23 = test system: NCI-H23
NCI-H460 = test system: NCI-H460
OVCAR-3 = test system: OVCAR-3
OVCAR-4 = test system: OVCAR-4
SR = test system: SR
U-251 = test system: U-251
UACC-62 = test system: UACC-62

Measured: GI50

COc1cc(/C=C\c2ccccc2)cc(OC)c1OC
inactive: 786-0 5.08 µM | CCRF-CEM 2.99 µM | COLO 205 3.08 µM | HCT-116 4.78 µM | HL-60 1.75 µM | IGROV-1 4.65 µM | M14 2.51 µM | NCI-H23 4.13 µM | NCI-H460 2.55 µM | OVCAR-3 2.29 µM | OVCAR-4 6.46 µM | SR 3.71 µM | U-251 4.15 µM | UACC-62 2.49 µM

CC(c1ccc(Br)cc1)C(C(=O)O)C(=O)O (centres undefined)
inactive: 786-0 > 100 µM | CCRF-CEM > 100 µM | COLO 205 > 100 µM | HCT-116 > 100 µM | HL-60 > 100 µM | IGROV-1 > 100 µM | M14 > 100 µM | NCI-H23 > 100 µM | NCI-H460 > 100 µM | OVCAR-3 > 100 µM | OVCAR-4 > 100 µM | SR > 100 µM | U-251 > 100 µM | UACC-62 > 100 µM

CN1/C(=C/C(=O)c2ccc(Cl)cc2)Nc2ccccc21
inactive: 786-0 65.6 µM | CCRF-CEM 34.8 µM | COLO 205 38 µM | HCT-116 45.7 µM | HL-60 25.1 µM | IGROV-1 38.6 µM | M14 67.3 µM | NCI-H23 43.7 µM | NCI-H460 32.5 µM | OVCAR-3 47.1 µM | OVCAR-4 77.6 µM | SR 32.2 µM | U-251 47.3 µM | UACC-62 44.3 µM

C#CCN(N=O)C(=O)NCCCC(NC(C)=O)C(=O)NCc1ccccc1 (centres undefined)
inactive: 786-0 > 100 µM | CCRF-CEM 11.3 µM | COLO 205 66.4 µM | HCT-116 73.6 µM | IGROV-1 > 100 µM | M14 > 100 µM | NCI-H23 > 100 µM | NCI-H460 28.8 µM | OVCAR-3 > 100 µM | OVCAR-4 > 100 µM | SR 6.3 µM | U-251 > 100 µM | UACC-62 81.7 µM

CCCCCCCC(=O)OC(CBr)COC(=O)C(C)(C)C (centres undefined)
inactive: 786-0 > 100 µM | CCRF-CEM 33 µM | COLO 205 > 100 µM | HCT-116 > 63.4 µM | HL-60 38 µM | IGROV-1 > 100 µM | M14 > 100 µM | NCI-H23 > 100 µM | NCI-H460 > 100 µM | OVCAR-3 > 68.2 µM | OVCAR-4 > 95.1 µM | SR 22.1 µM | U-251 > 100 µM | UACC-62 > 100 µM

CC(C)=CC(=O)c1c(C(=O)O)nc2ccccc2[n+]1[O-]
inactive: 786-0 > 100 µM | CCRF-CEM > 100 µM | COLO 205 > 100 µM | HCT-116 > 100 µM | HL-60 > 100 µM | IGROV-1 > 100 µM | M14 > 100 µM | NCI-H23 > 100 µM | NCI-H460 > 100 µM | OVCAR-4 > 100 µM | SR > 100 µM | U-251 > 100 µM | UACC-62 > 100 µM

COc1cccc(OC)c1/C=N\N1C(=O)c2ccccc2C1=O
inactive: 786-0 31.3 µM | CCRF-CEM 33.6 µM | HCT-116 33.5 µM | HL-60 33.9 µM | IGROV-1 84.3 µM | M14 19.7 µM | NCI-H23 38.5 µM | NCI-H460 43.2 µM | OVCAR-3 19.9 µM | OVCAR-4 49 µM | SR 32.8 µM | UACC-62 34.6 µM

COc1ccc(/C(=N/NC(=O)NN)C(c2ccc(OC)cc2)C2(O)CNc3c(Cl)cc(Cl)cc32)cc1 (centres undefined)
inactive: 786-0 > 100 µM | CCRF-CEM 88.9 µM | COLO 205 > 100 µM | HCT-116 50.9 µM | HL-60 > 100 µM | IGROV-1 > 100 µM | M14 > 100 µM | NCI-H23 > 100 µM | NCI-H460 > 100 µM | OVCAR-3 > 100 µM | OVCAR-4 > 100 µM | U-251 > 100 µM | UACC-62 99.1 µM

CN1S(=O)(=O)N(C)P12(N=P(CP(=NP13(N(C)S(=O)(=O)N1C)N(C)S(=O)(=O)N3C)(c1ccccc1)c1ccccc1)(c1ccccc1)c1ccccc1)N(C)S(=O)(=O)N2C
inactive: 786-0 > 100 µM | CCRF-CEM > 100 µM | COLO 205 > 100 µM | HCT-116 > 100 µM | HL-60 > 100 µM | IGROV-1 > 100 µM | M14 > 100 µM | NCI-H23 > 100 µM | NCI-H460 > 100 µM | OVCAR-3 > 100 µM | U-251 > 100 µM | UACC-62 > 100 µM

Cc1ccc(S(=O)(=O)NC(=O)C2S(=O)(=O)OCCOS2(=O)=O)cc1
inactive: 786-0 > 100 µM | CCRF-CEM > 100 µM | COLO 205 > 100 µM | HCT-116 > 100 µM | HL-60 > 100 µM | M14 > 100 µM | NCI-H23 > 100 µM | OVCAR-3 > 100 µM | OVCAR-4 > 100 µM | SR > 100 µM | UACC-62 > 100 µM

CN(C)c1ccc(/C=c2\sc3nnc(-c4cccnc4)n3c2=O)cc1
inactive: 786-0 > 100 µM | CCRF-CEM > 100 µM | COLO 205 > 100 µM | HCT-116 > 100 µM | HL-60 > 100 µM | IGROV-1 > 100 µM | M14 > 100 µM | NCI-H23 > 100 µM | NCI-H460 > 100 µM | OVCAR-3 > 100 µM | OVCAR-4 > 100 µM | U-251 > 100 µM | UACC-62 > 100 µM

CCCCCCCCCCCCCCCCCC(=O)NCC(COP(=O)(O)O)OCC (centres undefined)
inactive: 786-0 30.7 µM | CCRF-CEM > 100 µM | COLO 205 > 100 µM | HCT-116 58.6 µM | HL-60 > 100 µM | IGROV-1 49.9 µM | M14 77.1 µM | NCI-H23 14.1 µM | OVCAR-3 > 100 µM | OVCAR-4 > 100 µM | SR > 100 µM | UACC-62 54.3 µM

COc1ccc(/C=C/C(=O)c2sc(Nc3ccc([N+](=O)[O-])cc3)nc2C)cc1
inactive: 786-0 48.8 µM | CCRF-CEM 25.6 µM | COLO 205 45.7 µM | HL-60 21.2 µM | IGROV-1 66.5 µM | NCI-H23 26.5 µM | NCI-H460 44.6 µM | OVCAR-3 26 µM | U-251 65.2 µM | UACC-62 29.9 µM

N#C/C(=C1\SC(/N=N/c2ccc(Cl)cc2)C(=O)N1c1ccccc1)c1nc2ccccc2[nH]1 (centres undefined)
inactive: 786-0 13.7 µM | CCRF-CEM 16.9 µM | COLO 205 25.2 µM | HCT-116 46 µM | HL-60 45.6 µM | M14 20.1 µM | NCI-H23 17.3 µM | NCI-H460 33.7 µM | OVCAR-3 17.1 µM | OVCAR-4 23 µM | U-251 20.3 µM | UACC-62 31.4 µM

C=CC[P@@]1(=O)O[C@H](c2ccccc2)C(C)N1C(C)C (some centres undefined)
inactive: 786-0 > 100 µM | CCRF-CEM > 100 µM | HL-60 > 100 µM | IGROV-1 > 100 µM | M14 > 100 µM | NCI-H23 > 100 µM | NCI-H460 > 100 µM | OVCAR-3 > 100 µM | OVCAR-4 > 100 µM | SR > 100 µM | U-251 > 100 µM | UACC-62 > 100 µM
